“Also recorded” adds a separate entry of the source.
Columns and labels:
[1] = molecular target: T1, chemokine CXCR3Rs (Homo sapiens, UniProt P49682); assay: Commercial screening by Eurofins Panlabs; format: binding
T1 construct: Eurofins Panlabs (Taiwan), contract screening
T1 sequence (P49682 1-368): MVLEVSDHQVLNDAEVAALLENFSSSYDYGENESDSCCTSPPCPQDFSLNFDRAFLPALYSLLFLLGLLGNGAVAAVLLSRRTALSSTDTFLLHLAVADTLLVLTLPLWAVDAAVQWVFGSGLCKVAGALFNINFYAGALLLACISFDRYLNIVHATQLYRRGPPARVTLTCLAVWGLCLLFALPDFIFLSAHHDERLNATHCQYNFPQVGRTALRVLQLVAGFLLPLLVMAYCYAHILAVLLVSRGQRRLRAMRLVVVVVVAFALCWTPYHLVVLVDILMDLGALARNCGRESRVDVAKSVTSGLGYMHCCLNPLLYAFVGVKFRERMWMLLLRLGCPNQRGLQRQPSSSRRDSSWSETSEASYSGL

[2] = molecular target: T2, muscarinic M2Rs (Homo sapiens, UniProt P08172); assay: Commercial screening by Eurofins Panlabs; format: binding
T2 construct: Eurofins Panlabs (Taiwan), contract screening
T2 sequence (P08172 1-466): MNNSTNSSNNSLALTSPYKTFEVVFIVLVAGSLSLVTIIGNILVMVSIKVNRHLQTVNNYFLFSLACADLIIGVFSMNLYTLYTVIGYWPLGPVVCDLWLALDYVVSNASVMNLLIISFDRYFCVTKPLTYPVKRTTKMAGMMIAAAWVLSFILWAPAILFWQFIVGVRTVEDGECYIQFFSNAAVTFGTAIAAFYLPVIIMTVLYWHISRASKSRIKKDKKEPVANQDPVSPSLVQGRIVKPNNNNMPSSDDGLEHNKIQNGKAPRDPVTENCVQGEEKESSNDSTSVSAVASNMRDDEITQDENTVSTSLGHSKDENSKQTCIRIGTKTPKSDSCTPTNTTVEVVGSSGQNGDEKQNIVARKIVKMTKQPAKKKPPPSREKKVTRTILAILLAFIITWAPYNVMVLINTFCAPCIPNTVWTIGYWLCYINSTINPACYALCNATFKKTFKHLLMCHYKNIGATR

[3] = molecular target: hGhrR (COS7 cells stably expressing hGhrR-eYFP) (Homo sapiens, UniProt Q92847); assay: cell-based
Chain of hGhrR (COS7 cells stably expressing hGhrR-eYFP) (Q92847 whole entry): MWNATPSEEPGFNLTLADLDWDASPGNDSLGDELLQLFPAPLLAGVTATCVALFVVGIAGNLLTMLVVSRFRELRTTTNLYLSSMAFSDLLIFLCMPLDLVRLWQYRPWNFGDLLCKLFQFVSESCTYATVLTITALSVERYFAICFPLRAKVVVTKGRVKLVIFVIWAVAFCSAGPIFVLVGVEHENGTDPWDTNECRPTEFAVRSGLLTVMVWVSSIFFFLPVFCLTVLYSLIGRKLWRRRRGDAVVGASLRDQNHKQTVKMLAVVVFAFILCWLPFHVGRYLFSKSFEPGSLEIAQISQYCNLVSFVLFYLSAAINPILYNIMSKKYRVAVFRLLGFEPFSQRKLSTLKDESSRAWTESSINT
Description: For that purpose, the inositol phosphate accumulation assay was used [43, 44].
Briefly, 60,000 to 80,000 cells/well of COS7 cells, stably expressing the fusion protein hGhrR-eYFP, were seeded in 48-well plates in Dulbecco’s modified Eagle’s medium (DMEM) with 10% fetal calf serum (FCS) and 0.4 mg/mL hygromycin B. The next day, the cells were labeled with [2-^3H]-myo-inositol (2 µCi/mL, PerkinElmer). […] Cell debris was removed and the supernatant purified on an anion-exchange resin (BioRad, Hercules, CA, USA). The obtained data were analyzed with GraphPad Prism 5.0 (GraphPad Software, San Diego, CA, USA). […] EC50/IC50 values were calculated from at least three independent experiments. Emax is defined as the difference between maximal and minimal effect in presence of the compound.

Emax ([3]; COS-7, mean ± SEM, refers to ghrelin Emax as 100%, 0% = constitutive receptor activity): ~60%
EC50 ([3]; EC50, 2 h stimulation in absence of ghrelin, COS7-hGhrR): 0.7 nM
EC50 ([3]; pEC50, mean ± SEM, 2 h stimulation in absence of ghrelin): 0.676 nM
SMILES: Cc1nc2ccc(Oc3ccc(Br)cc3F)nc2c(=O)n1C[C@H]1CCCN(C(C)C)C1 [(S)-9, (S)-6-(4-Bromo-2-fluorophenoxy)-3-((1-isopropylpiperidin-3-yl)methyl)-2-methylpyrido[3,2-d]pyrimidin-4(3H)-one]
significant response (≥50% inhibition or stimulation) [1]: did not show significant responses; also recorded: did not show significant binding
significant response (≥50% inhibition or stimulation) [2]: did not show significant responses; also recorded: did not show significant binding

From paper PMC5412352 (International Journal of Molecular Sciences, 2017)
